Publication PMC12211128, “Safety, tolerability, pharmacokinetic and pharmacodynamic effects of the muscarinic M1 positive allosteric modulator VU0467319 for Alzheimer’s disease: a single ascending-dose study in healthy participants” (Alzheimer's Research & Therapy, 2025)

System: healthy participants
Experiment: Choice reaction time task (CRT)
Assay type: in vivo, human
Details: for CRT Median Motor Time / CRT Median Recognition Time / CRT Median Total Time: mean (SD)
Description: The choice reaction time (CRT; [31]) task was used to measure psychomotor speed. Outcome variables on the CRT were the median total reaction time, which can be broken down into the recognition time (time from stimulus onset to initiation of movement), and the motor reaction time (time from initiation of movement to stimulus termination).
Cognitive data: In this exploratory analysis, each outcome variable of the cognitive data was examined in a mixed model analysis of variance with one between-subjects factor of VU319 dose (0, 60, 120, 240, 400, 600 mg) and a within-subjects factor of testing session (pre-dose vs. post-dost administration). Post-hoc analysis compared each of the VU319 dose cohorts against the placebo group. Because the participants were healthy adults with normal cognitive function, we considered effects between no reductions in function to small improvement (d = 0.0–0.20) to be a positive result. For the food effect study, only the participants who received VU319 were examined due to the disproportionately small placebo group (n = 2). A within-subjects ANOVA including food condition (fasted/fed) and testing session (pre-dose vs. post-dose administration) was performed on each outcome variable.
The choice reaction time (CRT; (Hindmarch, 1984)) task was used to measure psychomotor speed. Outcome variables on the CRT were the median total reaction time, which can be broken down into the recognition time (time from stimulus onset to initiation of movement), and the motor reaction time (time from initiation of movement to stimulus termination).

[1] = Food effect study 120 mg, Fasting, Post-Drug
[2] = Food effect study 120 mg, Fasting, Pre-Drug
[3] = Food effect study 120 mg, Fed, Post-Drug
[4] = Food effect study 120 mg, Fed, Pre-Drug

Question: Which “CRT Median Motor Time” value [1] does the source give for `Cn1cc2c(-c3cc(F)c(CN4Cc5ncccc5C4=O)c(F)c3)cccc2n1` [VU319] here?
Answer: The value was 299.2 (24.19) ms.

Question: What about the “CRT Median Recognition Time” value [1] of the same molecule?
Answer: Its value is 370.55 (33.17) ms.

Question: What about the “CRT Median Total Time” value [1] of the same molecule?
Answer: The value was 679.55 (35.68) ms.

Question: And the “CRT Median Motor Time” value [2]?
Answer: The value was 302 (40.02) ms.

Question: What about the “CRT Median Recognition Time” value [2] of the same molecule?
Answer: Its value is 384.9 (53.58) ms.

Question: What about the “CRT Median Total Time” value [2] of the same molecule?
Answer: Its value is 691.25 (64.17) ms.

Question: What about the “CRT Median Motor Time” value [3] of the same molecule?
Answer: The value was 297.25 (36.2) ms.

Question: And the “CRT Median Recognition Time” value [3]?
Answer: Its value is 369.4 (41.57) ms.

Question: What about the “CRT Median Total Time” value [3] of the same molecule?
Answer: Its value is 673.65 (47.86) ms.

Question: What about the “CRT Median Motor Time” value [4] of the same molecule?
Answer: The value was 321.5 (36.67) ms.

Question: And the “CRT Median Recognition Time” value [4]?
Answer: Its value is 365.45 (41.27) ms.

Question: And the “CRT Median Total Time” value [4]?
Answer: The value was 695.7 (47.32) ms.

Question: What about the “CRT Median Motor Time” value (SAD study, 60 mg, Post-Drug) of the same molecule?
Answer: The value was 330.42 (64.58) ms.

Question: What about the “CRT Median Recognition Time” value (SAD study, 60 mg, Post-Drug) of the same molecule?
Answer: The value was 394.92 (82.56) ms.

Question: What about the “CRT Median Total Time” value (SAD study, 60 mg, Post-Drug) of the same molecule?
Answer: The value was 734.25 (120.68) ms.

Question: What about the “CRT Median Motor Time” value (SAD study, 60 mg, Pre-Drug) of the same molecule?
Answer: The value was 331.08 (35.75) ms.

Question: What about the “CRT Median Recognition Time” value (SAD study, 60 mg, Pre-Drug) of the same molecule?
Answer: The value was 391.33 (59.93) ms.

Question: And the “CRT Median Total Time” value (SAD study, 60 mg, Pre-Drug)?
Answer: The value was 735.08 (60.61) ms.

Question: What about the “CRT Median Motor Time” value (SAD study, 120 mg, Post-Drug) of the same molecule?
Answer: Its value is 332.67 (89.6) ms.

Question: What about the “CRT Median Recognition Time” value (SAD study, 120 mg, Post-Drug) of the same molecule?
Answer: Its value is 389 (43.6) ms.

Question: And the “CRT Median Motor Time” value (SAD study, 120 mg, Pre-Drug)?
Answer: The value was 329.08 (80.22) ms.

Question: And the “CRT Median Recognition Time” value (SAD study, 120 mg, Pre-Drug)?
Answer: The value was 384.92 (42.09) ms.

Question: And the “CRT Median Total Time” value (SAD study, 120 mg, Pre-Drug)?
Answer: The value was 718.58 (103.36) ms.

Question: And the “CRT Median Motor Time” value (SAD study, 240 mg, Post-Drug)?
Answer: Its value is 353.25 (69.11) ms.

Question: What about the “CRT Median Recognition Time” value (SAD study, 240 mg, Post-Drug) of the same molecule?
Answer: The value was 399 (83.54) ms.

Question: What about the “CRT Median Total Time” value (SAD study, 240 mg, Post-Drug) of the same molecule?
Answer: The value was 759.42 (151.55) ms.

Question: And the “CRT Median Motor Time” value (SAD study, 240 mg, Pre-Drug)?
Answer: Its value is 374.58 (64.5) ms.

Question: And the “CRT Median Recognition Time” value (SAD study, 240 mg, Pre-Drug)?
Answer: Its value is 410.5 (68.61) ms.

Question: What about the “CRT Median Total Time” value (SAD study, 240 mg, Pre-Drug) of the same molecule?
Answer: The value was 800.92 (121.25) ms.

Question: And the “CRT Median Motor Time” value (SAD study, 400 mg, Post-Drug)?
Answer: Its value is 334.33 (33) ms.

Question: And the “CRT Median Recognition Time” value (SAD study, 400 mg, Post-Drug)?
Answer: The value was 388.17 (40.47) ms.

Question: What about the “CRT Median Total Time” value (SAD study, 400 mg, Post-Drug) of the same molecule?
Answer: The value was 728.92 (57.1) ms.

Question: What about the “CRT Median Motor Time” value (SAD study, 400 mg, Pre-Drug) of the same molecule?
Answer: The value was 331 (38.55) ms.

Question: And the “CRT Median Recognition Time” value (SAD study, 400 mg, Pre-Drug)?
Answer: The value was 396.67 (41.84) ms.

Question: What about the “CRT Median Total Time” value (SAD study, 400 mg, Pre-Drug) of the same molecule?
Answer: Its value is 731 (55.14) ms.

Question: And the “CRT Median Motor Time” value (SAD study, 600 mg, Post-Drug)?
Answer: The value was 282.33 (56.95) ms.

Question: What about the “CRT Median Recognition Time” value (SAD study, 600 mg, Post-Drug) of the same molecule?
Answer: Its value is 362.67 (52.01) ms.

Question: What about the “CRT Median Total Time” value (SAD study, 600 mg, Post-Drug) of the same molecule?
Answer: The value was 649.58 (71.76) ms.

Question: What about the “CRT Median Motor Time” value (SAD study, 600 mg, Pre-Drug) of the same molecule?
Answer: Its value is 291.42 (46.98) ms.

Question: What about the “CRT Median Recognition Time” value (SAD study, 600 mg, Pre-Drug) of the same molecule?
Answer: The value was 364.92 (18.0) ms.

Question: And the “CRT Median Total Time” value (SAD study, 600 mg, Pre-Drug)?
Answer: The value was 662.17 (61.66) ms.

Question: What about the “CRT total, recognition and motor time, effect of dose” value (SAD study, all p > 0.1) of the same molecule?
Answer: The value was “no effect of dose, session, nor a dose by session interaction”.

Question: What about the “CRT recognition time, food condition by session interaction, effect size d” value (food effect study, 120 mg, p = 0.027, quicker recognition post-dose in fasted condition) of the same molecule?
Answer: Its value is 1.76.
